From patent publication US20260183275A1, “SUBSTITUTED QUINOLONE COMPOUNDS USEFUL AS INHIBITORS OF TLR9” (Bristol-Myers Squibb Company, priority 2022, published 2026) come the findings set out here.

Holding throughout (assay type): cell-based
One assay addresses T1, human TLR7 (Homo sapiens, UniProt Q9NYK1).
T1 construct: host or cells: HEK-Blue cells
T1 sequence (Q9NYK1 27-1049): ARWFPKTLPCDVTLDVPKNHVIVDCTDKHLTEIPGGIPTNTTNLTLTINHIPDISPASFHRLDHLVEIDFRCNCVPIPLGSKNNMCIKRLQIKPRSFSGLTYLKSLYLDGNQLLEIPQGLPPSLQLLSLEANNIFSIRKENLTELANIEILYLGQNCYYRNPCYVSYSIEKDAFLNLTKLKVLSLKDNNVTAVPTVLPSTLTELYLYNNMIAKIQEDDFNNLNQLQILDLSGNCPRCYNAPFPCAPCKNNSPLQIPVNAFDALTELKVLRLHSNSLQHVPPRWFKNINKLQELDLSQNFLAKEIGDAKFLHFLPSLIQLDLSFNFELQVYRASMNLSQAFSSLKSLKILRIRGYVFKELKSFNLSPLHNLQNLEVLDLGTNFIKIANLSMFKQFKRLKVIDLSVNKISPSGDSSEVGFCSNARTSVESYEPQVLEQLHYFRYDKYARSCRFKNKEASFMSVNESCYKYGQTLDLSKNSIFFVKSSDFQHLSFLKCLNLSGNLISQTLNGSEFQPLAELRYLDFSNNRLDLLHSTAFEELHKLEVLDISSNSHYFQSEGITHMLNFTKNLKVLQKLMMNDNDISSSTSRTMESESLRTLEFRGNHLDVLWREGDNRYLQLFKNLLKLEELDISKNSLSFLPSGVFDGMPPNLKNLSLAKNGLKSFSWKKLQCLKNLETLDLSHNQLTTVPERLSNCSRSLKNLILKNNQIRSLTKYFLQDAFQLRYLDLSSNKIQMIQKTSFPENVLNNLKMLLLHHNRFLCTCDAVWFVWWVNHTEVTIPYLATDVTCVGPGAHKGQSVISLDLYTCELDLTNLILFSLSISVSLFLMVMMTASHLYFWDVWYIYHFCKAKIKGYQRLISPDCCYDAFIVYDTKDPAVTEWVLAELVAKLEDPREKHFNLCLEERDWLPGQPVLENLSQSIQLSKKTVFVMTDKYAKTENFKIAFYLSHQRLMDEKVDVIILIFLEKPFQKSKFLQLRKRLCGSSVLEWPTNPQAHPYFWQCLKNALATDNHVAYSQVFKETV
The assay can be described thus: TLR7 inhibition reporter assay (HEK-Blue cells, SEAP reporter). The settings on record: HEK-Blue cells overexpressing human TLR7; stimulated with gardiquimod 7.5 μM; SEAP read after 22 hour; dose range 0.05 nM-50 μM. The essentials: (§1)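 HEK-Blue cells with NF-κB/AP-1-driven SEAP pre-treated 30 min with compounds (0.05 nM-50 μM), then stimulated with gardiquimod 7.5 μM (TLR7), R848 15.9 μM (TLR8) or ODN2006 5 nM (TLR9). SEAP read after 22 h at 37° C; % inhibition relative to agonist+DMSO and reference-inhibitor wells.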
In general terms: In a reporter assay the amount or activity of a reporter protein is the signal.

For another assay, the target named is T2, human TLR9 (Homo sapiens, UniProt Q9NR96).
T2 construct: host or cells: HEK-Blue cells
T2 sequence (Q9NR96 26-1032): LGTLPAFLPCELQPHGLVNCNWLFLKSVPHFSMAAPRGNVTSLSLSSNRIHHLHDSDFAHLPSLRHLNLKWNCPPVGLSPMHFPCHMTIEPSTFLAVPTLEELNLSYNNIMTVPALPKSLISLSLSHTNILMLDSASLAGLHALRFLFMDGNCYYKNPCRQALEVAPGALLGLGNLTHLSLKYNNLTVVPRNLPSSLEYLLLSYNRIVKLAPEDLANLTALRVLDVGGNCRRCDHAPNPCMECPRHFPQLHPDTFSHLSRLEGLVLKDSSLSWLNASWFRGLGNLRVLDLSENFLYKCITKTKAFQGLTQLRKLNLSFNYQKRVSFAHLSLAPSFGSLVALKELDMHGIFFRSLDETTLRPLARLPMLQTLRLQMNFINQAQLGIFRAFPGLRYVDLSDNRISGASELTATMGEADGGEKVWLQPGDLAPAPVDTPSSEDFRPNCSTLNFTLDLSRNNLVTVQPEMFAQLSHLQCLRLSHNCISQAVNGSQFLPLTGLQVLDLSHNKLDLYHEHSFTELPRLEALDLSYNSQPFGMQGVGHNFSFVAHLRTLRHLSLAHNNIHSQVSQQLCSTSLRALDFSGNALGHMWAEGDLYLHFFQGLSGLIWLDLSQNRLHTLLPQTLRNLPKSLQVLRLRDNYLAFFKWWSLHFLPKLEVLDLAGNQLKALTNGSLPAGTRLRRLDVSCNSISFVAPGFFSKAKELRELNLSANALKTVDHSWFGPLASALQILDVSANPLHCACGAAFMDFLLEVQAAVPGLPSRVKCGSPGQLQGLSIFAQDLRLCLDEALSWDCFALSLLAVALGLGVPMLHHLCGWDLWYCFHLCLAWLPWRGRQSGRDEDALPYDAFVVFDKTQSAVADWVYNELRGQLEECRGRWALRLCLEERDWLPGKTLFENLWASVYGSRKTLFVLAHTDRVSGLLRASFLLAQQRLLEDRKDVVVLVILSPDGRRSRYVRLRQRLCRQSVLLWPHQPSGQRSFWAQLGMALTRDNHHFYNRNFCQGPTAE
The assay can be described thus: TLR9 inhibition reporter assay (HEK-Blue cells, SEAP reporter). The settings on record: HEK-Blue cells overexpressing human TLR9; stimulated with ODN2006 5 nM; SEAP read after 22 hour; dose range 0.05 nM-50 μM. The essentials:
as §1

The next assay deals with T3, human TLR8 (Homo sapiens, UniProt Q9NR97).
T3 construct: host or cells: HEK-Blue cells
T3 sequence (Q9NR97 27-1041): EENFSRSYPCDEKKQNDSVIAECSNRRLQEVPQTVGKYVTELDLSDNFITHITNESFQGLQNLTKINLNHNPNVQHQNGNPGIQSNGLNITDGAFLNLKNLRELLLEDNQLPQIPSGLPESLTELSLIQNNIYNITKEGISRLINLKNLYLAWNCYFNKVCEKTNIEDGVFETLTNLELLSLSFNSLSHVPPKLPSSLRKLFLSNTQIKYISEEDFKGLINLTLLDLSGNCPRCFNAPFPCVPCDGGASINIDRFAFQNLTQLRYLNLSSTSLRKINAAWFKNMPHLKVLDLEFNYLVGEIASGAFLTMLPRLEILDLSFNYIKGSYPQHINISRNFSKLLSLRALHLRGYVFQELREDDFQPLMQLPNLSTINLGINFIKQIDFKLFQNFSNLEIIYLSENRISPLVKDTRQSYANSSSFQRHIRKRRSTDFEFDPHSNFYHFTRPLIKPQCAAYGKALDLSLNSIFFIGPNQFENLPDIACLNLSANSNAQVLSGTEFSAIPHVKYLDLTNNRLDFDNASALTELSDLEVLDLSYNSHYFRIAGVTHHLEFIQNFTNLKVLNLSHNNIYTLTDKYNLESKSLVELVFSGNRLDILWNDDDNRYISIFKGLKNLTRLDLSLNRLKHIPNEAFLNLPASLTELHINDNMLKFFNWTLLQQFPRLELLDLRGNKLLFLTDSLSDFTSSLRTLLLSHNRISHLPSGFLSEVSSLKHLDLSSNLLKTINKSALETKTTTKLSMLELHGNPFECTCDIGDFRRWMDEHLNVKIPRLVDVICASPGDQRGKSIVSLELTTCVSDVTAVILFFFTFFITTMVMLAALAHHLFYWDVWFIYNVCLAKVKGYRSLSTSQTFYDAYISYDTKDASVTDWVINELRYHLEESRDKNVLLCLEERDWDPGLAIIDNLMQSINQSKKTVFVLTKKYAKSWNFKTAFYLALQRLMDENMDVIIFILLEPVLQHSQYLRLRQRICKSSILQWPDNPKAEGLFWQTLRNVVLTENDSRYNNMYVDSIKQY
The assay can be described thus: TLR8 inhibition reporter assay (HEK-Blue cells, SEAP reporter). The settings on record: HEK-Blue cells overexpressing human TLR8; stimulated with R848 15.9 μM; SEAP read after 22 hour; dose range 0.05 nM-50 μM. The essentials: as §1

As a reminder, the IC50 is the concentration at which inhibition is half-maximal. Low readings indicate inhibition by little substance, high ones a need for much substance. In the case of `CCc1c(-c2ccc(S(C)(=O)=O)cc2)c(=O)[nH]c2ccc(C3CCN(C4CCN(C(C)C)CC4)CC3)cc12` [Example 66, 4-ethyl-3-(4-methanesulfonylphenyl)-6-[1′-(propan-2-yl)-[1,4′-bipiperidine]-4-yl]-1,2-dihydroquinolin-2-one], the IC50 against human TLR7 was 9970 nM; on human TLR9, 57 nM; against human TLR8 it was at least 50000 nM.
In the case of `CS(=O)(=O)Nc1cccc(-c2cc3cc(-c4ccc(C5CCN(C6COC6)CC5)cc4)ccc3[nH]c2=O)c1` [Example 98, N-[3-(6-{4-[1-(oxetan-3-yl)piperidin-4-yl]phenyl}-2-oxo-1,2-dihydroquinolin-3-yl)phenyl]methanesulfonamide], the IC50 is at least 50000 nM against human TLR7, 1430 nM at human TLR9 and 26700 nM on human TLR8.
Consider `COc1cccc(-c2cc3cc(-c4ccc(N5CCN(C(C)C)CC5)cc4)ccc3[nH]c2=O)c1` [Example 30, 3-(3-methoxyphenyl)-6-{4-[4-(propan-2-yl)piperazin-1-yl]phenyl}-1,2-dihydroquinolin-2-one], for which the values for the IC50 against human TLR7, on human TLR9 and against human TLR8 were 2160 nM, 277 nM and 5220 nM, respectively.
With `CC(C)N1CCC(c2ccc(-c3ccc4c(c3)cc(-c3ccc(S(C)(=O)=O)cc3)c(=O)n4CC(C)(C)O)cc2)CC1` [Example 89, 1-(2-hydroxy-2-methylpropyl)-3-(4-methanesulfonylphenyl)-6-{4-[1-(propan-2-yl)piperidin-4-yl]phenyl}-1,2-dihydroquinolin-2-one], the IC50 stood at 4960 nM against human TLR7, 465 nM on human TLR9 and 10900 nM on human TLR8.
In the case of `CC(C)N1CCC(c2ccc(-c3ccc4c(c3)cc(-c3ccc(S(C)(=O)=O)cc3)c(=O)n4C)cc2)CC1` [Example 68, 3-(4-methanesulfonylphenyl)-1-methyl-6-{4-[1-(propan-2-yl)piperidin-4-yl]phenyl}-1,2-dihydroquinolin-2-one], the IC50 at human TLR7 came out at 7960 nM; against human TLR9, 70 nM; against human TLR8 it was 475 nM.
In the case of `CC(C)N1CCC(c2ccc(-c3ccc4c(c3)cc(-c3ccc(S(C)(=O)=O)cc3)c(=O)n4CCO)cc2)CC1` [Example 72, 1-(2-hydroxyethyl)-3-(4-methanesulfonylphenyl)-6-{4-[1-(propan-2-yl)piperidin-4-yl]phenyl}-1,2-dihydroquinolin-2-one], the IC50 against human TLR7 came out at 3580 nM; against human TLR9, 154 nM; against human TLR8, 21700 nM.
For `CC(C)N1CCN(c2ccc(-c3ccc4[nH]c(=O)c(-c5ccc(N6CC[C@H](F)C6)cc5)cc4c3)cc2)CC1` [Example 22, 3-{4-[(3S)-3-fluoropyrrolidin-1-yl]phenyl}-6-{4-[4-(propan-2-yl)piperazin-1-yl]phenyl}-1,2-dihydroquinolin-2-one], the values for the IC50 against human TLR7, at human TLR9 and against human TLR8 were at least 50000 nM, 216 nM and at least 50000 nM, respectively.
`CC(C)N1CCC(c2ccc(Nc3ccc4c(c3)cc(-c3ccc(S(C)(=O)=O)cc3)c(=O)n4C)cc2)CC1` [Example 75, 3-(4-methanesulfonylphenyl)-1-methyl-6-({4-[1-(propan-2-yl)piperidin-4-yl]phenyl}amino)-1,2-dihydroquinolin-2-one]: the values for the IC50 on human TLR7, at human TLR9 and at human TLR8 were 6630 nM, 253 nM and at least 50000 nM, respectively.
Turning to `CC(C)N1CCN(c2ccc(-c3ccc4[nH]c(=O)c(-c5ccccc5C(F)(F)F)cc4c3)cc2)CC1` [Example 33, 6-{4-[4-(propan-2-yl)piperazin-1-yl]phenyl}-3-[2-(trifluoromethyl)phenyl]-1,2-dihydroquinolin-2-one], the IC50 came to 2230 nM against human TLR7, 300 nM on human TLR9 and 4700 nM at human TLR8.
As to `CC(C)N1CCN(c2ccc(-c3ccc4[nH]c(=O)c(-c5ccc(C(=O)O)cc5)cc4c3)cc2)CC1` [Example 62, 4-(2-oxo-6-{4-[4-(propan-2-yl)piperazin-1-yl]phenyl}-1,2-dihydroquinolin-3-yl)benzoic acid], the values for the half-maximal inhibitory concentration (IC50) against human TLR7, against human TLR9 and against human TLR8 were at least 50000 nM, 1760 nM and at least 50000 nM, respectively.
Regarding `CC(C)N1CCC(c2ccc(-c3ccc4c(c3)cc(-c3ccc(N(C)S(C)(=O)=O)cc3)c(=O)n4C)cc2)CC1` [Example 74, N-methyl-N-[4-(1-methyl-2-oxo-6-{4-[1-(propan-2-yl)piperidin-4-yl]phenyl}-1,2-dihydroquinolin-3-yl)phenyl]methanesulfonamide], the IC50 on human TLR7 amounted to 12000 nM; at human TLR9, 237 nM; on human TLR8, 29600 nM.
For the compound `CC(C)N1CCN(c2ccc(-c3ccc4[nH]c(=O)c(-c5ccc(-n6cnnn6)cc5)cc4c3)cc2)CC1` [Example 7, 3-(4-(1H-tetrazol-1-yl)phenyl)-6-(4-(4-isopropylpiperazin-1-yl)phenyl)quinolin-2(1H)-one], the IC50 against human TLR7 is 1130 nM; against human TLR9, 80 nM; on human TLR8, at least 50000 nM.
